Laboratory results reported in US7338454B2, “Breath test” (Children, Youth and Women's Health Service Incorporated, priority 2001, dated 2008).
Values joined by “and” are separate entries in the source; they are usually repeats but may differ in a detail not shown here. Identical values can stand only once. Marks after values point to notes of the source that are not given here. Blank lines part the entries; values can stand above or below the molecule they belong to.

Columns and labels:
[1] = test system: Dark Agouti rats; assay: Food intake, body weight, villus height and overall mucosal damage in MTX-treated rats with or without folinate; format: in vivo, rat
Experimental: (§1) Sixteen female SPF Dark Agouti rats were housed in individual metabolism cages and were given ad libitum access to a semi-synthetic casein based diet and fresh water. Food and water intakes and body weights were measured daily. They were given two injections of MTX (1.5 mg/kg i/m) at 0 and 24 hrs. Calcium folinate was added to the drinking water of eight rats (10 mg/m^2) 2 hours prior to, and during MTX injections. Eight rats were given MTX but no folinate treatment, and four control rats were given no treatments. Four rats from each treatment group were killed at 72 hours, and the other four at 120 hours, after initial chemotherapy. SBT were undertaken before chemotherapy, and at 52 and 100 hours after initial chemotherapy.
(§2) At the appropriate times, rats were anaesthetised with halothane, cardiac blood samples collected and the animals were killed by cervical dislocation. The small intestine was emptied, flushed with chilled saline and weighed. Samples were collected into formalin from each of the proximal jejunum for histological assessment, and from the jejunum into liquid nitrogen for sucrase and myeloperoxidase determinations.

[2] = test system: small intestine; assay: Histological severity score of small intestinal damage, methotrexate-treated rats; format: in vivo, rat; conditions: rats treated with methotrexate seven days earlier, n=4; median; maximum score 33
Text: Rats were sacrificed in the afternoon of day 7 by cervical dislocation under CO2 anaesthesia. The abdomen was opened via a midline incision and the liver and gut excised. The gut contents were flushed thoroughly with phosphate buffered saline, pH 6.0. The small intestine was placed on an ice-cold slab and divided into three sections: the duodenum comprising the intestine from the gastro-duodenal junction to the ligament of Treitz; the remaining intestine from the ligament of Treitz to the caecum was divided in half to provide jejunum and ileum of equal length. A 4 cm portion was excised from each intestinal section and was rapidly frozen in liquid nitrogen, before being transferred to a −70° C. freezer until determination of sucrase activity. A further 1 cm of each section was excised and fixed in methacarn fixative for two hours, transferred to 70% ethanol for 48 hours, and embedded in paraffin wax for histological analysis (Howarth et al., (1996).
Tissue samples in paraffin wax were sectioned transversely at 21 μm, stained with haematoxylin and eosin to expose the structure of the intestinal mucosa, and examined by an under a light microscope (Howarth et al., 1996). A semi-quantitative histological assessment of intestinal damage was utilised to obtain an overall score of damage severity in the three sections of the small intestine. A severity score ranging from 0-3 was allocated for 11 histological features (table 1), such that the maximum severity score (33) indicated the most severe damage (Howarth et al., 1996).
Histological severity scores were calculated and presented as median and range. The unpaired non-parametric Mann-Whitney two-sample test was employed to compare the severity scores of the methotrexate-treated rats with controls for each section of intestine.

[3] = test system: myeloperoxidase; assay: Jejunal myeloperoxidase (MPO) in MTX-treated rats; format: in vivo, rat; conditions: MTX treated rats not given folinate, 72 hours
Experimental: as §1, §2

[4] = test system: sucrase; assay: In vitro assay of sucrase activity in duodenum, jejunum and ileum of methotrexate-treated rats; format: in vivo, rat; conditions: Day 7 after methotrexate treatment, vs control, p<0.0005
Text: Rats were sacrificed in the afternoon of day 7 by cervical dislocation under CO2 anaesthesia. The abdomen was opened via a midline incision and the liver and gut excised. The gut contents were flushed thoroughly with phosphate buffered saline, pH 6.0. The small intestine was placed on an ice-cold slab and divided into three sections: the duodenum comprising the intestine from the gastro-duodenal junction to the ligament of Treitz; the remaining intestine from the ligament of Treitz to the caecum was divided in half to provide jejunum and ileum of equal length. […]
the method of Dahlqvist (1968). […] Enzyme activity was then related to the protein concentration of the enzyme preparation as determined by the method of Bradford (1976), in which a standard curve of bovine serum albumin concentration is used to ascertain the protein content of the sample. As a result, the sucrase activity representative of duodenal, jejunal and ileal brush border membrane was determined as μ mol of substrate hydrolysed at 37° C. at pH 6.0/mg protein/hour.
Sucrase activity was expressed as specific activity relative to protein (μmol substrate hydrolysed at 37° C. at pH 6.0/mg protein/hour) and presented as mean±SEM. […] Significant difference in sucrase activity in the duodenum, jejunum and ileum of methotrexate-treated compared to control rats was detected using an unpaired t-test.

[5] = molecular target: T1, sucrase (Homo sapiens, UniProt P14410); assay: 13C-Sucrose Breath Test in healthy adults, with and without sucrase inhibitor; format: in vivo; conditions: two human subjects, respectively; 200 mg acarbose with 20 g sucrose vs 20 g sucrose alone
T1 construct: from tissue; host or cells: small-intestinal brush border of living human volunteers (in vivo breath test; no isolated protein)
Experimental: Breath samples were analysed for ^13CO2 by an isotope ratio mass spectrometer (IRMS; Europa Scientific, ABCA 20/20, Crewe, United Kingdom) equipped with a V410 data collection system. Isotope ratio mass spectrometric analysis of breath samples expresses results as a delta value, representing the ratio of ^13C/^12C in the sample in parts per thousand relative to the calcium carbonate international primary standard, Pee-Dee Belemnite limestone (South Carolina, USA)(Renes et al., (1997). Baseline levels of breath ^13CO2 were determined by averaging the delta of breath samples collected prior to the ingestion of sucrose. Results from the ^13C-Sucrose Breath Test were then calculated as the change in breath ^13CO2 levels from baseline (i.e. delta over baseline: DOB) for each time point of breath collection over the period of interval sampling. The area under the “change in breath ^13CO2 level over time” curve (AUC) was calculated using the trapezoidal rule: AUC=Σ[(DOBt1+DOBt2)/2]×(t2−t1)
The study recruited 10 healthy, non-smoking adults (male n=2; female n=8) aged 19-37 years old (mean age 22+2 years) with mean weight 65.2+3 kg. Subjects had no known history of gastrointestinal or liver disease. Antibiotic and non-steroidal antiinflammatory drug use in the three weeks preceding the experiment and acute alcohol consumption the day preceding the experiment warranted exclusion. […]

[6] = test system: Dark Agouti rats; assay: Sucrose breath test in MTX-treated rats with or without folinate; format: in vivo, rat
Experimental: as §1
Breath ^13CO2 levels are indicative of sucrase activity in the small intestine. SBTs were undertaken before and after chemotherapy. • Rats were fasted for 3 hrs and placed in the collection chambers for 15 minutes to acclimatise and baseline samples collected into exetainers. • Rats were gavaged with 1.0 ml of a sucrose solution containing 1 g/ml of naturally enriched ^13C-sucrose. • Breath samples were collected at 30, 60 and 90 minute time intervals after gavage and analysed for ^13CO2 by isotope ratio mass spectrometry (PDZ-Europa ABCA).

[7] = test system: sucrase; assay: Jejunal sucrase activity in MTX-treated rats with or without folinate; format: in vivo, rat; conditions: MTX-treated rats with folinate vs non-folinate
Experimental: as §1, §2
Sucrase activity was measured using a modification of the glucose oxidase method for estimation of the […] glucose concentration (Dahlqvist, 1968).

[8] = test system: sucrase; assay: Ileal sucrase activity in 5-FU treated rats; format: in vivo, rat; conditions: 5-FU 150 mg/kg i.p., normal level 54.9±0.9
Experimental: (§3) Ten female Dark Agouti rats were injected intraperitoneally with 150 mg/kg 5-FU; three rats there killed at 48, 72 and four at 96 hours after 5-FU treatment. Two control rats were not treated with 5-FU. Sucrose breath tests (SBT) were undertaken before chemotherapy and prior to sacrifice by measuring released ^13CO2 in the breath after gavages of ^13C-sucrose as an indicator of small intestine (SI) sucrase function. Tissue samples were collected from SI for sucrase enzyme determinations and histological assessment from the jejunum and ileum.

[9] = test system: small intestine; assay: Histological severity scores of jejunum and ileum in 5-FU treated rats; format: in vivo, rat; conditions: 5-FU 150 mg/kg i.p.
Experimental: as §3

[10] = test system: Dark Agouti rats; assay: Food intake of 5-FU treated rats; format: in vivo, rat; conditions: 5-FU 150 mg/kg i.p.
Experimental: as §3

[11] = molecular target: T1, sucrase; assay: Breath hydrogen analysis in healthy adults, with and without sucrase inhibitor; format: in vivo; conditions: 20 g sucrose with or without 200 mg acarbose, 180 min
Experimental: Subjects ingested 20 g, 40 g and 60 g sucrose (AnalaR, BDH, MERCK Pty Ltd, Victoria, Australia) dissolved in 100 ml water on separate occasions. The order of these breath tests was random for each subject. To determine whether the breath test was capable of detecting inhibition of sucrase activity, two volunteers ingested 2×100 mg sucrase inhibitor (Acarbose tablets, Glucobay™) crushed and dissolved in 30 ml water, immediately followed by 20 g sucrose dissolved in 70 ml water.
All subjects were required to fast for a minimum of eight hours prior to testing and for the three hour duration of the test period. Small amounts of water were permitted 30 minutes after ingestion of the test solution. Subjects provided two baseline breath samples immediately prior to ingestion of the test solution. Following ingestion of the test solution, breath samples were collected every 15 minutes for three hours. Physical activity was avoided during the three hour experimental period, particularly at breath collection time points. End-expiratory breath samples were provided by exhaling through a straw into 5×10 ml glass tubes (Exetainer, Labco Limited, High Wycombe, England). […]
Breath samples provided by human subjects were analysed for hydrogen content by gas chromatography (Quintron, Model DP Microlyzer, E.F. Brewer Company, Wisconsin). […]

T1 sequence (P14410 whole entry): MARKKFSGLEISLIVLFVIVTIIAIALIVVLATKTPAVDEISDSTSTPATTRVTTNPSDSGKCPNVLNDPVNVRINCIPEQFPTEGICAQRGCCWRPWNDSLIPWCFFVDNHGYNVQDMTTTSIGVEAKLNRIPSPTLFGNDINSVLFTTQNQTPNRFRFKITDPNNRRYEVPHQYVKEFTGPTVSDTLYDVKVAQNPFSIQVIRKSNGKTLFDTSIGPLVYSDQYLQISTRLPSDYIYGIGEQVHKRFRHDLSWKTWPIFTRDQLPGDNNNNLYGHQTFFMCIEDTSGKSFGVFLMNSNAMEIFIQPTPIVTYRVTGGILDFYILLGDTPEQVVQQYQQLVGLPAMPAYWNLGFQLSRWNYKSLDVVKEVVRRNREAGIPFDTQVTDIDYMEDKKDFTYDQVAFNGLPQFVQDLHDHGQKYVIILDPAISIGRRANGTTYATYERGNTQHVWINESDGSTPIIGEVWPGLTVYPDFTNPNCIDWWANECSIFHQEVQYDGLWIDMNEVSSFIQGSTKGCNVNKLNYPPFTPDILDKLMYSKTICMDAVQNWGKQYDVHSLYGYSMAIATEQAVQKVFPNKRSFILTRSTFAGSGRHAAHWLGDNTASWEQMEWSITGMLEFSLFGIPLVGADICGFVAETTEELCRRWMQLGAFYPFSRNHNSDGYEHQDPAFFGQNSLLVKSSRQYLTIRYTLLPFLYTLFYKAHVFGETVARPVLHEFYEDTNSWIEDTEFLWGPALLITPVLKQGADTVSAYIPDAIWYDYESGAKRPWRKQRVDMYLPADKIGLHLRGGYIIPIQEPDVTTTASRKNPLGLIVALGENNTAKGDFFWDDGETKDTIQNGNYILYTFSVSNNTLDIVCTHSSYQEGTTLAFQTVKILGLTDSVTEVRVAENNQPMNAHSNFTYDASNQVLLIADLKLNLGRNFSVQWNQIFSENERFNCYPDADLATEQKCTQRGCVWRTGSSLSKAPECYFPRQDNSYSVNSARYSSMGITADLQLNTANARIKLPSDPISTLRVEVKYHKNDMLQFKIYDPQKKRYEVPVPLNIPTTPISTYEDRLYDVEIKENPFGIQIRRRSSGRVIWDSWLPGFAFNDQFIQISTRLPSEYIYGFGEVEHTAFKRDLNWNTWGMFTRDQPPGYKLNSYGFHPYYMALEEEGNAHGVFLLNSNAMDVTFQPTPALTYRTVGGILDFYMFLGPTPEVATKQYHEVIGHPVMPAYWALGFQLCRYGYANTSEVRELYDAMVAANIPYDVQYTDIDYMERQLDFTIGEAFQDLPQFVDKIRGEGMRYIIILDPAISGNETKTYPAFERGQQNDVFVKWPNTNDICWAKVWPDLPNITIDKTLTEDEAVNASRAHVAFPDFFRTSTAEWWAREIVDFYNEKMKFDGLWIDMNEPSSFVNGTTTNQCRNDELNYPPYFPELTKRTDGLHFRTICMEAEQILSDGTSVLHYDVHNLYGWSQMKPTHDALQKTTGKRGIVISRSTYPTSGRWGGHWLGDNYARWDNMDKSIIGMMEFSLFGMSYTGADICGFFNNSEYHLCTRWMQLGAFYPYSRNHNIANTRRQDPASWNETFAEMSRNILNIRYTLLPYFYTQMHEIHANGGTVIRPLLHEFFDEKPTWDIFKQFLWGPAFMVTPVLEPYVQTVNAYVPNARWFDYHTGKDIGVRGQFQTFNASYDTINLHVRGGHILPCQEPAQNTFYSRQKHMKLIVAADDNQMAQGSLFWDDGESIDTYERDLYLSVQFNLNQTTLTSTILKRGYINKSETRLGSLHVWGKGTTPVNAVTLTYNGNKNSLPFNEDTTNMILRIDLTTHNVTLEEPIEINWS

Myeloperoxidase (inflammatory marker), jejunum [3]: significantly higher
SMILES: CN(Cc1cnc2nc(N)nc(N)c2n1)c1ccc(C(=O)N[C@@H](CCC(=O)O)C(=O)O)cc1 [methotrexate]
Body weights ([1]; rats, MTX without folinate, after chemotherapy): decreased | Reduction in food intake ([1]; rats, MTX without folinate, from t0 to 96 hours after treatment): 20% | Severity score, duodenum [2]: 8 * | Severity score, ileum [2]: 6.5 * | Severity score, jejunum [2]: 10 * | Sucrase activity in duodenum, jejunum and ileum [4]: significantly diminished in all three sections of intestine

Breath 13CO2 AUC diminished in the presence of the inhibitor [5]: 57% and 93%
SMILES: C[C@H]1O[C@H](O[C@H]2[C@H](O)[C@@H](O)[C@@H](O[C@H]3[C@H](O)[C@@H](O)C(O)O[C@@H]3CO)O[C@@H]2CO)[C@H](O)[C@@H](O)[C@@H]1N[C@H]1C=C(CO)[C@@H](O)[C@H](O)[C@H]1O (stereo partly shown) [Acarbose]

SMILES: Nc1nc(=O)c2c([nH]1)NCC(CNc1ccc(C(=O)N[C@@H](CCC(=O)[O-])C(=O)[O-])cc1)N2C=O.[Ca+2] (stereo partly shown) [Calcium folinate]
Disruption to the sucrase activity by SBT, folinate vs no folinate ([6]; MTX-treated rats, p<0.0012 at 52 hours, p<0.0136 at 100 hours): significant decrease in disruption to the sucrase activity | SBT result (breath 13CO2) 52 hrs after MTX treatment ([6]; rats, MTX 1.5 mg/kg i/m at 0 and 24 hrs, calcium folinate 10 mg/m^2 in drinking water): attenuates mucosal damage | Jejunal sucrase activity [7]: prevented the reduction in jejunal sucrase activity | Damage to the small intestinal mucosa by sucrase activity, MPO levels, histological changes and sucrose breath testing ([1]; MTX-treated rats): totally prevented damage | Villus heights (structural damage) ([1]; MTX-treated rats, folinate administered orally): structural damage was attenuated

Ileal sucrase activity at 72 hours [8]: 7.52±0.82 nmol glucose/min/cm | Histological severity score, ileum, 72 hours [9]: 12 | Histological severity score, ileum, 96 hours [9]: 8 | Histological severity score, jejunum, 72 hours [9]: 8 | Histological severity score, jejunum, 96 hours [9]: 5 | Histological severity score, ileum, 48 hours ([9]; median): 17 | Histological severity score, jejunum, 48 hours ([9]; median): 13 | Food intake 72 hours after injection [10]: 4.7 ± 0.7 g | Food intake 96 hours after injection [10]: 6.4 ± 0.8 g | Food intake 24 hours after injection ([10]; before treatment 11.1±0.3 g/rat/day): 5.3 ± 0.4 g
SMILES: O=c1[nH]cc(F)c(=O)[nH]1 [5-FU, 5-fluorouracil]

Breath Hydrogen, Subject 1, maximum change from baseline [11]: 2 ppm | Breath Hydrogen, Subject 2, maximum change from baseline [11]: 2 ppm
SMILES: OC[C@H]1O[C@@](CO)(O[C@H]2O[C@H](CO)[C@@H](O)[C@H](O)[C@H]2O)[C@@H](O)[C@@H]1O [Sucrose, sucrose]
